In patent publication US12691084B2, “Pharmaceutical composition for preventing or treating bone diseases” (INDUSTRY FOUNDATION OF CHONNAM NATIONAL UNIVERSITY, priority 2019, dated 2026):

Experiments:
[1] = system: plasma proteins; test: Plasma protein binding (PPB); format: in vitro ADME, Human; conditions: for binding with plasma proteins: conclusion from ADME evaluation
Procedure: (§1) In order to analyze the drug metabolism of PMSA compound, ADME evaluation was requested to the Daegu-Gyeongbuk Advanced Medical industry Promotion Foundation (DGMIF). Metabolic stability of drugs using liver microsomes (microsomal stability), drug metabolism inhibitory ability by five CYP450 enzymes, plasma metabolism (plasma stability), plasma protein binding, and intestinal permeability of drugs (PAMPA, parallel artificial membrane permeability assay) were analyzed. […] Further, it was confirmed that the permeability resistance was excellent (see Table 3 below). On the other hand, for one of PMSA derivatives, that is, 2-(N-(3,5-dimethylphenyl)methylsulfinamido)-N-(2 (phenylthio)phenyl)propanamide (#25-D5), intestinal permeability of the drug (PAMPA) was not measured.

[2] = Plasma stability; format: in vitro ADME
Procedure: as §1

[3] = target: CYP2D6 (Homo sapiens, UniProt P10635); test: CYP450 drug metabolism inhibition, 2D6; format: in vitro ADME; conditions: criterion remaining activity >50%
CYP2D6, sequence (P10635 whole entry): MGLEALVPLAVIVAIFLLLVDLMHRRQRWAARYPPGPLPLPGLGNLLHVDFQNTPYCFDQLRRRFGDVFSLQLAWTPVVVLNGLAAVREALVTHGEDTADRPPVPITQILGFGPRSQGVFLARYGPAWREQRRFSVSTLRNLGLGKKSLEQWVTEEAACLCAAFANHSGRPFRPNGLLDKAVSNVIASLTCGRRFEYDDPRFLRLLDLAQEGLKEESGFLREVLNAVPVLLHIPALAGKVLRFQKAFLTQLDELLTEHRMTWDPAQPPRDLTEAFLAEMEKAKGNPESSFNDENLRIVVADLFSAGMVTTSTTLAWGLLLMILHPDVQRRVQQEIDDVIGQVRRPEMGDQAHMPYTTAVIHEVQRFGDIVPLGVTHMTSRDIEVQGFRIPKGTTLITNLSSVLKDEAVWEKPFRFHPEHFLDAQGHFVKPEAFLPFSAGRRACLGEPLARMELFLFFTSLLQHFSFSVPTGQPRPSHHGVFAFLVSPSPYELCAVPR
Procedure: as §1

[4] = PAMPA, parallel artificial membrane permeability assay; format: in vitro ADME; conditions: for Papp: PAMPA, criterion >40, read-out: PAMPA (>40) Pe; for permeability resistance: conclusion from ADME evaluation
Procedure: as §1

[5] = ADME evaluation (DGMIF), overall conclusion on toxicity; format: in vitro ADME; conditions: conclusion from ADME evaluation
Procedure: as §1

[6] = system: monocytes isolated from mouse bone marrow treated with RANKL; test: Osteoclast differentiation inhibition, TRAP staining and assay; format: cell-based; conditions: 10 μM; RANKL; TRAP staining, Image J
Procedure: Macrophages were isolated from bone marrow of 8-week old C57BL/6J mice, and seeded on a 96-well plate in an amount of 1×10^4 cells per well, followed by treating the cells with osteoclast differentiation factors M-CSF and RANKL at 30 ng/ml and 50 ng/ml, respectively. At the same time, the compounds were used for treatment, followed by culturing the cells for 3 to 4 days. Thereafter, differentiation influence was evaluated through TRAP staining and cell counting. Specific experimental procedures and results are as follows.
The bone marrow of a 10-week-old female mouse was isolated from the hip bone, femur and tibia, and incubated in α-MEM medium (Gibco, 12561-056, 10% fetal bovine serum, 1% penicillin/streptomycin) containing macrophage colony stimulating factor (M-CSF, PeproTech, 315-02, 30 ng/ml) for […] so as to isolate only monocytes. The isolated monocytes were treated with receptor activator of nuclear factor kappa B ligand (RANKL, PeproTech, 315-11, 50 ng/ml) to induce osteoclast differentiation. When a morphology of fused multinuclear cells began to appear from day 3 after treatment with RANKL, the cells were differentiated into giant multinuclear cells for 4 to 6 days (see FIG. 1), and dead by cell apoptosis after 6 days.
During RANKL treatment, each PMSA compound was also used for treatment, followed by culturing the cells for 3 or 5 days to confirm the effects of inhibiting osteoclast differentiation.
1×10^4 monocytes isolated from mouse bone marrow were put into a 96-well plate and treated with RANKL and PMSA together to confirm the effect of each PMSA on osteoclast differentiation ability. Each PMSA was used for treatment by concentration. The activity of tartrate-resistant acid phosphatase (TRAP), which has increased expression during osteoclast differentiation, was confirmed using a TRAP activity assay kit (Cosmo Bio, PMC-AK04F-COS) (see FIG. 2).
Further, after staining, the multinuclear cells formed during osteoclast differentiation were observed under a microscope, and each well was photographed and a differentiation area ratio per total area was determined using Image J software. […] Specifically, at 10 μM concentration, cells were differentiated into osteoclasts by 30% when using #25 (PMSA-3-Ac), similarly, 74% using #25-C (PMSA-Ph), 63% using #25-N (PMSA-PhN), 41% using #25-PhO (PMSA-O), and only 1% using #25-D12 (PMSA-2-OMe-5-Cl), respectively. […]

[7] = target: T1, CYP1A2 (Homo sapiens, UniProt P05177); test: CYP450 drug metabolism inhibition, 1A2; format: in vitro ADME; conditions: criterion remaining activity >50%
T1 sequence (P05177 1-516): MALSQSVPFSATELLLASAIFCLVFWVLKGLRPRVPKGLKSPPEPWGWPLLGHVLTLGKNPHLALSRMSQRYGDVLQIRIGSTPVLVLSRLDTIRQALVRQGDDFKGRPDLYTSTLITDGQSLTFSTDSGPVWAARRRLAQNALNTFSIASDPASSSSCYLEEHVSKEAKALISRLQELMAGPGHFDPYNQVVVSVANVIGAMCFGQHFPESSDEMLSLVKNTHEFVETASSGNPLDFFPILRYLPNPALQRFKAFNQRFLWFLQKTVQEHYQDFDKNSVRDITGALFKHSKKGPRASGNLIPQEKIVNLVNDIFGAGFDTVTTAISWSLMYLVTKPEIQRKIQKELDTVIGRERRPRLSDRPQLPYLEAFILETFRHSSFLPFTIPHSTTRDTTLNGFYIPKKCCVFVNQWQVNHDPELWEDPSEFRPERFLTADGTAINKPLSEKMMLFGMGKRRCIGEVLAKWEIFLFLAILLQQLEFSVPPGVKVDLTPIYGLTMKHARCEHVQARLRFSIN
Procedure: as §1

[8] = target: CYP3A4 (Homo sapiens, UniProt P08684); test: CYP450 drug metabolism inhibition, 3A4; format: in vitro ADME; conditions: criterion remaining activity >50%
CYP3A4, sequence (P08684 whole entry): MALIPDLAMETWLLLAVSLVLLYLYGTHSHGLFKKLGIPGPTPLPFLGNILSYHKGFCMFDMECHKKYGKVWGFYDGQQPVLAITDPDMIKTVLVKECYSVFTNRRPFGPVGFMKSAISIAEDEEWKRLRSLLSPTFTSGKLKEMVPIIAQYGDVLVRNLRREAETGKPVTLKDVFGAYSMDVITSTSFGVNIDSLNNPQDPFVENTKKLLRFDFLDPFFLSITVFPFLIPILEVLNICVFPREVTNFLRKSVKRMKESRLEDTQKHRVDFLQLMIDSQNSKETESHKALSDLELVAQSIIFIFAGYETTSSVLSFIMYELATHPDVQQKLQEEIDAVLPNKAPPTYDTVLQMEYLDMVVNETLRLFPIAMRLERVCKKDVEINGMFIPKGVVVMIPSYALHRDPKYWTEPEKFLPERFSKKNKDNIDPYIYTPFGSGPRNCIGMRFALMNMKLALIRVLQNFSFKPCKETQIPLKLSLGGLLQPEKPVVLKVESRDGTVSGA
Procedure: as §1

[9] = system: mouse bone marrow cells; test: Bone resorption assay on calcium phosphate coated plate; format: cell-based; conditions: 6 days; for bone resorption ability: compared to Ctrl
Procedure: Bone resorption ability was confirmed using a bone resorption assay kit (Cosmo Rio, CSR-BRA). 2.5×10^4 mouse bone marrow cells per well were put into a 48-well plate coated with calcium phosphate, followed by treating the cells with PMSA to perform differentiation for 6 days. After 6 days, a fluorescence absorbance was measured with the culture medium to confirm the bone absorption ability. Further, decomposition degree of calcium phosphate was photographed a microscope to confirm the bone resorption ability. […] In FIG. 4, BMMs refer to monocytes that are not differentiated osteoclasts.
Further, the bone resorption ability was confirmed using a bone resorption assay kit (Cosmo Bio, CSR-BRA). 2.5×10^4 mouse bone marrow cells per well were put into a 48-well plate coated with calcium phosphate, and were differentiated for 6 days while being treated with PSTP-3,5-Me. After 6 days, the fluorescence absorbance was measured with the culture medium to confirm the bone absorption ability.

[10] = target: CYP2C19 (Homo sapiens, UniProt P33261); test: CYP450 drug metabolism inhibition, 2C19; format: in vitro ADME; conditions: criterion remaining activity >50%
CYP2C19, sequence (P33261 whole entry): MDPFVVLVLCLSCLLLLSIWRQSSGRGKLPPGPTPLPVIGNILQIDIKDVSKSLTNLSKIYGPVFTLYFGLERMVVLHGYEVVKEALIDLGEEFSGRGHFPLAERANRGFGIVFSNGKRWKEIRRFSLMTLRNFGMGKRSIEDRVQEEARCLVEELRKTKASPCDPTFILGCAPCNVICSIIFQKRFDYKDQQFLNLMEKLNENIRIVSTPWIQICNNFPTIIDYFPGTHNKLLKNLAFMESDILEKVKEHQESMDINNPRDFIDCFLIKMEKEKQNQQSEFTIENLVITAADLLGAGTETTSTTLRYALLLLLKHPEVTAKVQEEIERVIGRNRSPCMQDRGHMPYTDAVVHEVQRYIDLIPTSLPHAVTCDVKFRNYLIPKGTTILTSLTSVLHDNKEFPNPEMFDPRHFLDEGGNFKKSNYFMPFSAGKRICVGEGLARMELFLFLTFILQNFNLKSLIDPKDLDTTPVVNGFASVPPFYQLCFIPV
Procedure: as §1

[11] = Microsomal stability (M); format: in vitro ADME, mouse; conditions: M of H/M; criterion >60%
Procedure: as §1

[12] = target: CYP2C9 (Homo sapiens, UniProt P11712); test: CYP450 drug metabolism inhibition, 2C9; format: in vitro ADME; conditions: criterion remaining activity >50%
CYP2C9, sequence (P11712 whole entry): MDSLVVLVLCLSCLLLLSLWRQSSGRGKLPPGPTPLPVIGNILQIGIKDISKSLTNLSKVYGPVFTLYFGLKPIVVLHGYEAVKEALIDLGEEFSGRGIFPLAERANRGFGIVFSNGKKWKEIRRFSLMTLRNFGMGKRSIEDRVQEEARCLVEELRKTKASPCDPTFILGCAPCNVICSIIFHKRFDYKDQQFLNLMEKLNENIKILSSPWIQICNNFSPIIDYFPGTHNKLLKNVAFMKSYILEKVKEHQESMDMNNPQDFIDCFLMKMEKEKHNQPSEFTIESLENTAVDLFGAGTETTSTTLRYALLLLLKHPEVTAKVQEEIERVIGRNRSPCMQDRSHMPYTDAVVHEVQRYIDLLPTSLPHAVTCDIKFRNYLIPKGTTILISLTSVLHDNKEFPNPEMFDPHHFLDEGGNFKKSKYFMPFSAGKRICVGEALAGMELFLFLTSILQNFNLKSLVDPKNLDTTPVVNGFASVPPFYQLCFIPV
Procedure: as §1

[13] = Microsomal stability (H); format: in vitro ADME, human; conditions: H of H/M; criterion >60%
Procedure: as §1

Structure (SMILES)	PPB Human (%, bound) [1]	binding with plasma proteins [1]	Plasma S Human 30 min (% Remaining) [2]	Plasma S Human 120 min (% Remaining) [2]	CYP 2D6 remaining activity [3]	Papp [4]	permeability resistance [4]	toxicity [5]	cells differentiated into osteoclasts (differentiation area ratio per total area) [6]	CYP 1A2 remaining activity [7]	CYP 3A4 remaining activity [8]	decrease in bone resorption ability ([9]; compared to differentiated osteoclasts (Ctrl) not treated, fluorescence absorbance)	CYP 2C19 remaining activity [10]	Microsomal stability (>60%) M [11]	CYP 2C9 remaining activity [12]	Microsomal stability (>60%) H [13]	bone resorption ability [9]
CC(=O)c1cccc(N(CC(=O)Nc2ccccc2-c2ccccc2)S(C)(=O)=O)c1 [#25-C, N-([1,1′-biphenyl]-2-yl)-2-(N-(3-acetylphenyl)methylsulfonamido)acetamide]	97.9 %, bound	good	100/100 % Remaining	100/100 % Remaining	18.3%	766 nm/s	excellent	low toxicity	74%	96.8%	72%	13.4%	6.9%	3.7%	67.2%	50.6%	
CC(=O)c1cccc(N(CC(=O)Nc2ccccc2Nc2ccccc2)S(C)(=O)=O)c1 [#25-N, 2-(N-(3-acetylphenyl)methylsulfonamido)-N-(2-(phenylamino)phenyl)acetamide]	97.9 %, bound	good	100/100 % Remaining	100/100 % Remaining	12.6%	472 nm/s	excellent	low toxicity	63%	81.6%	43.1%		9%	4.0%	47%	3.3%	slightly decreased
CC(=O)c1cccc(N(CC(=O)Nc2ccccc2Oc2ccccc2)S(C)(=O)=O)c1 [#25-O, 2-(N-(3-acetylphenyl)methylsulfonamido)-N-(2-phenoxyphenyl)acetamide]	98.4 %, bound	good	94.3 % Remaining	96.4 % Remaining	53.1%	662 nm/s	excellent	low toxicity	41%	100%	70.1%		10.4%	3.1%	49.7%	12.5%	slightly decreased
